Assay results: publication PMC7939384, “In crystallo screening for proline analog inhibitors of the proline cycle enzyme PYCR1” (The Journal of Biological Chemistry, 2021)

Target: T1, human PYCR1 (Homo sapiens, UniProt P32322)
T1 sequence (P32322 1-300): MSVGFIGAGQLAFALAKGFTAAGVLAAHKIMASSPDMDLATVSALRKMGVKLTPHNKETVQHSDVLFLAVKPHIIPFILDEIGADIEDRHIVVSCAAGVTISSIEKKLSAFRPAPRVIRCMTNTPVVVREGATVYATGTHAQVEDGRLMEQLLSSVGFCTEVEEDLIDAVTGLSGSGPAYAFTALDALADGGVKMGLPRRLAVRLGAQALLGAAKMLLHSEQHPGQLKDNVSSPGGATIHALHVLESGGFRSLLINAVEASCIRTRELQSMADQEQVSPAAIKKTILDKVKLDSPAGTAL
Experiment: In crystallo screening: electron density as readout for binding (crystal soaking)
Parameters: includes residues 1–300 of the full-length 319-residue enzyme; inferred from the Ni-NTA purification; made in house; host or cells: Escherichia coli BL21 (DE3)
Details: apo crystals soaked with 25–500 mM of the proline analog
Method: Over two dozen proline analogs (Fig. 2) were screened using electron density from X-ray crystallography as the readout for binding to human PYCR1. […] Because the compounds bind in the P5C/proline site, the mechanism of inhibition was assumed to be competitive with P5C. Therefore, steady-state kinetic measurements were performed with L-P5C as the variable substrate (0-1000 μM) and NADH fixed (175 μM) (Fig. 3). For each compound, the data were fit globally to a competitive inhibition model (Equation 1) to obtain an inhibition constant, Ki.
06594), D,L-thiazolidine-2-carboxylate (Sigma-Aldrich no. 467995), L-thiazolidine-4-carboxylate (Sigma-Aldrich no. T27502), 1,3-thiazolidine-2,4-dicarboxylate (Sigma-Aldrich no. CDS000186), dimethyl 1,3-thiazolidine-2,4-dicarboxylate (Sigma-Aldrich no. […] 287067), L-4-hydroxyproline methyl ester (hydrochloride) (Sigma-Aldrich no. 30681), cis-4-hydroxy-D-proline methyl ester (hydrochloride) (Sigma-Aldrich no. […] 441562), L-(+)-mandelic acid (Sigma-Aldrich no. 63460), sodium-L-lactate (Sigma-Aldrich no. 71718), D-cycloserine (Sigma-Aldrich no. C6880). The proline analogs were added to apo crystals during cryoprotection by soaking the crystals in the reservoir solution supplemented with cryoprotectant (PEG 200 for the PEG 3350 form; glycerol for the NaCl form) and then in the same cryobuffer supplemented with 25–500 mM of the proline analog. Following equilibration, the crystals were harvested and rapidly plunged into liquid nitrogen.
The complex of PYCR1 with THFA was obtained by soaking a C2 crystal (NaCl form) for 15 min in a cryo-buffer consisting of the reservoir solution (3 M NaCl and 0.1 M HEPES at pH 7.5–8.0) supplemented with 30% glycerol and 50 mM THFA, followed by flash-cooling in liquid nitrogen. Crystals of the NFLP complex were prepared by soaking P2_12_12 crystals in the reservoir solution (250 mM Li2SO4, 19% (w/v) PEG 3350, 0.1 M HEPES, pH 7.5) supplemented with 20% (v/v) PEG 200 and 100 mM NFLP. The complexes with L-T2C and L-T4C were prepared similarly, except the Li2SO4 concentration was reduced to 25 mM and 50 mM of either L-T4C or D,L-T2C was included.

O=CN1CCC[C@H]1C(=O)O [NFLP, N-formyl L-proline]
electron density evidence for binding (in words): Electron density evidence for binding was observed
